Marks after values point to notes of the source that are not given here.
What was measured:
[1] = tested on: pain threshold at right rear limb plantar part of SHRSP strain male rats; test: Pain threshold improving action in SHRSP rat (Randall & Selitto's method); assay type: in vivo; details: for Pain threshold (g) before administration of compound A: baseline before oral administration
Description: Pain Threshold Improving Action in SHRSP Rat (Easily Cerebral Apoplexy Developing Spontaneous Hypertension Rat)
SHRSP strain male rats (27 weeks old, Nihon Clea, 6 animals per group) were used. […] Measurement of a pain threshold value was performed according to a Randall & Selitto's method (Arch. Int. Pharmacodyn. Ther. 111, 409-419, 1957). Immediately after therefrom, a compound A [2-ethoxy-1-[[2′-(5-oxo-2,5-dihydro-1,2,4-oxadoazol-3-yl)biphenyl-4-yl]methyl]-1H-benzimidazole-7-carboxylic acid] was orally administered (0.5 ml/100 g, b.w.) and, one hour after, a pain threshold value was measured. Only a solvent was orally administered to a control group. Regarding the effect of a specimen, drug efficacy assessment was performed by threshold pressure of a control group and a specimen administration group.

[2] = tested on: acetic acid writhing in ICR strain male mice; test: Acetic acid writhing method (analgesic action); assay type: in vivo, mouse; details: 30 mg/kg oral, 30 minutes before 0.6% acetic acid i.p., counted for 20 minutes
Description: Acetic Acid Writhing Method
Method: ICR strain male mice (5 weeks old, Nihon Clea) were used at 10 animals per group, and a specimen [compound A: 2-ethocy-1-[[2′-(5-oxo-2,5-dihydro-1,2,4-oxadiazol-3-yl)biphenyl-4-yl]methyl]-1H-benzimidazole-7-carboxylic acid] was orally administered (0.2 ml/10 g). After 30 minutes, a 0.6% acetic acid solution was intraperitoneally injected (0.1 ml/10 g) and, immediately, mice were placed into a transparent acryl resin observation cage, a time of writhing and stretching induced for 20 minutes therefrom was counted, and an inhibition rate (%) was calculated from average times of a control group and a specimen administration group.

[3] = tested on: carrageenin edema, right rear limb plantar part of SD strain male rats; test: Carrageenin edema method (antiinflammatory action); assay type: in vivo, rat; details: 30 mg/kg oral, 1 hour before carrageenin, limb volume 3 hours after, relative to control
Description: Method: SD strain male rats (6 weeks old, Nihon Clea) were used at 6 animals per group. The carrageenin edema method was performed according to a method of Winter et al. (Proc. Soc. exp. Biol. Med., 111, 544-547, 1962). After a volume of a right rear limb plantar part was measured, a specimen [compound A: 2-ethoxy-1-[[2′-(5-oxo-2,5-dihydro-1,2,4-oxadiazol-3-yl)biphenyl-4-yl]methyl]-1H benzimidazole-7-carboxylic acid] was orally administered (1 ml/100 g), and water was additionally added to a total amount of 5 ml/rat. After one hour, 0.05 ml of a 1% carrageenin physiological saline solution was subcutaneously injected to induce edema. Whereby, a volume of a right rear limb plantar part was measured after 3 hours. The effect of a specimen was obtained by a difference of a limb volume between before carrageenin injection and after 3 hours, and calculating an inhibition rate (%) relative to a control group.

CCOc1nc2cccc(C(=O)O)c2n1Cc1ccc(-c2ccccc2-c2nc(=O)o[nH]2)cc1 [Compound A, 2-Ethoxy-1-[[2′-(5-oxo-2,5-dihydro-1,2,4-oxadiazol-3-yl)biphenyl-4-yl]methyl]-1H-benzimidazole-7-carboxylic acid]
Pain threshold (g) before administration of compound A ([1]; 1 mg/kg group): 210 g
Pain threshold (g) 1 hour after administration of compound A ([1]; 1 mg/kg oral): 277* g
Pain threshold (g) before administration of compound A ([1]; 3 mg/kg group): 213 g
Pain threshold (g) 1 hour after administration of compound A ([1]; 3 mg/kg oral): 352* g
Pain threshold (g) before administration of compound A ([1]; 10 mg/kg group): 212 g
Pain threshold (g) 1 hour after administration of compound A ([1]; 10 mg/kg oral): 430* g
Pain threshold (g) before administration of compound A ([1]; 30 mg/kg group): 214 g
Pain threshold (g) 1 hour after administration of compound A ([1]; 30 mg/kg oral): 470* g
Inhibition rate (%) of writhing and stretching [2]: 52* %
Inhibition rate (%) of carrageenin edema [3]: 34* %
